Measurements taken from US20120156699A1, “Pathogenic TH17 Cells; related reagents and methods” (Schering Corporation, priority 2007, published 2012).

Legend:
[1] = tested on: naïve human CD4+ T cells; assay: Cytokine expression by naïve human CD4+ T cells cultured with IL-1β and IL-23, with or without PGE2 or EP receptor agonists; assay type: cell-based; details: together with IL-1β and IL-23
Protocol: FIGS. 5A, 5B and 5C present results obtained in naïve human CD4^+ T cells activated with T cell activation beads and cultured in the presence or absence of IL-23 and IL-1β, with or without PGE2 or the EP receptors agonists butaprost, misoprostol, and sulprostone. Data in FIGS. 5A-5C reflect IL-17A, IFN-γ and IL-10 production in cell-free supernatants of T cells restimulated for 48 hours, respectively. Results in each figure are representative of two independent experiments.
(§1) Methods used in this example are generally as described at Wilson et al. (2007) Nature Immunology 8:950. More specifically, cell culture is performed as follows. Naïve CD4^+ CD45RO^− T cells are isolated and cultured as described previously (Wilson et al. (2007), supra). Memory CD4^+ CD45RA^− T cells are isolated using the memory T cell isolation kit, human (Miltenyi, Auburn, Calif.), according to the manufacturer's instructions. Where indicated, 50 ng/ml hIL-23, 50 ng/ml hIL-1β (R&D Systems, Minneapolis, Minn.), 10 μM PGE2 (Sigma, St. Louis, Mo.), 10 μM butaprost (EP2 selective agonist), 35 μM misoprostol (EP4, EP3>EP1>EP2 agonist), and/or 10 μM sulprostone (EP1, EP3 agonist, Cayman Chemical, Ann Arbor, Mich.) are added.
ELISA and electrochemiluminescence assays are performed as described previously (Wilson et al. (2007), supra). IL-10 ELISA is performed using a kit from R&D Systems. […]

[2] = tested on: IL-23R; assay: IL-23R expression in naïve human CD4+ T cells, flow cytometry; assay type: cell-based; details: 10 μM PGE2, 10 μM butaprost, 35 μM misoprostol, 10 μM sulprostone; restimulated 48 hours; FIGS. 4A, 4B
Protocol: FIGS. 4A and 4B present results obtained in experiments in which naïve human CD4^+ T cells are activated with T cell activation beads and cultured in the presence or absence of PGE2 or specific EP receptors agonists.
as §1
For analysis of cell surface proteins, cells are stained with anti-CD4, anti-CD3, anti-CD45RA, anti-CCR6 (BD Biosciences), and/or anti-IL-23R (R&D Systems) antibodies. Data are acquired on a LSR II cytometer and analyzed with FlowJo software (Tree Star, Ashland, Oreg.).
Further experiments are performed to determine the effect of PGE2, or agonists thereof, on the expression of IL-23R in naïve human CD4^+ T cells in culture. […]

[3] = tested on: CCR6; assay: CCR6 expression in naïve human CD4+ T cells, flow cytometry; assay type: cell-based; details: PGE2 added to IL-1β and IL-23; FIG. 6A
Protocol: FIGS. 6A, 6B and 6C present results obtained with naïve human CD4^+ T cells cultured as described with reference to FIGS. 5A-5C. […] Results represent mean±s.e.m. of nine independent experiments. For data presented in FIGS. 6B and 6C, naïve T cells are cultured in the presence of IL-1β, IL-23, and PGE2. After reactivation, CD4^+ CCR6^+ and CD4^+CCR6^− T cells are sorted and cultured for seven days in the presence of IL-2. […] Results in each of FIGS. 6B and 6C reflect the results of four independent experiments.
Methods used in this example are generally as described at Wilson et al. (2007) Nature Immunology 8:950. More specifically, cell culture is performed as follows. Naïve CD4^+ CD45RO^− T cells are isolated and cultured as described previously (Wilson et al. (2007), supra). Memory CD4^+ CD45RA^− T cells are isolated using the memory T cell isolation kit, human (Miltenyi, Auburn, Calif.), according to the manufacturer's instructions. […]
For analysis of cell surface proteins, cells are stained with anti-CD4, anti-CD3, anti-CD45RA, anti-CCR6 (BD Biosciences), and/or anti-IL-23R (R&D Systems) antibodies. Data are acquired on a LSR II cytometer and analyzed with FlowJo software (Tree Star, Ashland, Oreg.). […]

[4] = tested on: IL-1R1; assay: IL-1R1 gene expression in response to PGE2; assay type: cell-based, human; details: data not shown
Protocol: (§2) Real-time quantitative PCR is performed as described previously (Wilson et al. (2007), supra).
Further experiments are performed to determine the effect of PGE2, or agonists thereof, on the expression of IL-23R in naïve human CD4^+ T cells in culture. […] In addition, IL-1R1 gene expression is increased in response to PGE2 (data not shown).

[5] = tested on: human memory CD4+ T cells; assay: Cytokine production and gene expression in activated human memory CD4+ T cells; assay type: cell-based
Protocol: FIGS. 7A and 7B present results obtained with human memory CD4^+ T cells activated and cultured for three days in the presence of IL-23, IL-1β, and/or PGE2. […] Results from nine independent donors are shown. […] Results from four different donors are shown. Horizontal lines represent medians.
as §1
ELISA and electrochemiluminescence assays are performed as described previously (Wilson et al. (2007), supra). IL-10 ELISA is performed using a kit from R&D Systems.
as §2
Intervention with therapeutic agents, such as antagonists of the inflammatory cytokines and non-cytokine immunomodulators, might therefore be expected to be beneficial when administered both systemically and also when administered locally at (or near) the site of inflammation.

[6] = tested on: CD161+ Thmem cells; assay: IL-17 production by lamina propria CD161+ Thmem cells cultured with IL-23; assay type: cell-based, human; details: CD161+ Thmem cells cultured in the presence of IL-23
Protocol: (§3) Colon and peripheral blood (PB) samples are obtained from Crohn's Disease patients. Lamina propria mononuclear cells (LPMC) are prepared from colon samples by dissociation of the epithelial layer of the mucosa, collagenase digestion of the lamina propria, and density gradient centrifugation. Peripheral blood mononuclear cells (PBMC) are isolated from PB by density gradient centrifugation and lysis of red blood cells.
Colon samples from CD patients contain approximately 20-fold more CD161^+ CD4^+ memory T cells, as determined by flow cytometry, than colon samples from normal subjects. FACS® flow cytometry purified lamina propria CD161^+ Thmem cells are found to produce 4 to 6-fold more IL-17 than CD161^− Thmem cells (as measured by ELISA) in both CD and normal samples.

[7] = tested on: PBMC CD161+ Thmem cells; assay: IL-17 production by PBMC CD161+ Thmem cells from CD patients cultured with IL-23; assay type: cell-based, human
Protocol: as §3
This Th17 phenotype is increased in Crohn's disease patients.

[8] = memory T cells cultured three days, FIG. 7A

CCCC1([C@H](O)C/C=C/[C@H]2[C@H](O)CC(=O)[C@@H]2CCCCCCC(=O)OC)CCC1 [butaprost]
IL-17 expression ([1]; FIG. 5A): somewhat greater increase in IL-17 expression than misoprostol | percentage of IL-23R expressing CD4+ T cells [2]: more than doubles

CCCCC[C@H](O)/C=C/[C@H]1[C@H](O)CC(=O)[C@@H]1C/C=C\CCCC(=O)O [PGE2, prostaglandin E2]
percentage of naïve human CD4+ T cells expressing CCR6 [3]: increase in the percentage | IL-10 expression ([1]; FIG. 5C): Downregulation | IL-1R1 gene expression [4]: increased | percentage of IL-23R expressing CD4+ T cells [2]: more than doubles | IFN-γ levels [5, 8]: does not promote increased levels | IL-10 levels [5, 8]: does not promote increased levels | IL-17A levels [5, 8]: promotes increased levels | ROR-γt expression ([5]; real-time RT-PCR, FIG. 7B): promotes increased levels of the IL-17A and expression of ROR-γt

B1: IL-23: protein consisting of two polypeptide subunits, p19 and p40 (protein, UniProt Q9NPF7 20-189; P29460 23-328, looked up)
Interleukin-23 subunit alpha: RAVPGGSSPAWTQCQQLSQKLCTLAWSAHPLVGHMDLREEGDEETTNDVPHIQCGDGCDPQGLRDNSQFCLQRIHQGLIFYEKLLGSDIFTGEPSLLPDSPVGQLHASLLGLSQLLQPEGHHWETQQIPSLSPSQPWQRLLLRFKILRSLQAFVAVAARVFAHGAATLSP
Interleukin-12 subunit beta: IWELKKDVYVVELDWYPDAPGEMVVLTCDTPEEDGITWTLDQSSEVLGSGKTLTIQVKEFGDAGQYTCHKGGEVLSHSLLLLHKKEDGIWSTDILKDQKEPKNKTFLRCEAKNYSGRFTCWWLTTISTDLTFSVKSSRGSSDPQGVTCGAATLSAERVRGDNKEYEYSVECQEDSACPAAEESLPIEVMVDAVHKLKYENYTSSFFIRDIIKPDPPKNLQLKPLKNSRQVEVSWEYPDTWSTPHSYFSLTFCVQVQGKSKREKKDRVFTDKTSATVICRKNASISVRAQDRYYSSSWSEWASVPCS
enhancement of IL-17 production [6]: approximately 3 fold | IL-17 production [7]: increased IL-17 production
